# Results from article PMC7587356, “High-Throughput Screening for Inhibitors of the SARS-CoV-2 Protease Using a FRET-Biosensor” (Molecules, 2020).
# Where a name gives a salt, the structure may show the parent alone. Read-outs that look alike come from different tables or passages of the source.
# Target: SARS-CoV-2 3CLpro (Severe acute respiratory syndrome coronavirus 2, UniProt P0DTD1)
# Assay: biochemical
# Format: biochemical
# Design: Replicate_1 / Replicate_2 / mean / mean (LOPAC_screen_w_protease): unit not given here
# Conditions: for inhibition at 5 µM: 4 h
# [1] = sheet LOPAC_screen_w_protease, primary screen with protease, compound at 5 µM, mean of two replicates, read-out: mean
# [2] = sheet LOPAC_screen_w_protease, primary screen with protease, compound at 5 µM, replicate 1, read-out: Replicate_1
# [3] = sheet LOPAC_screen_w_protease, primary screen with protease, compound at 5 µM, replicate 2, read-out: Replicate_2
# [4] = sheet LOPAC_screen_w_protease, LOPAC1280 primary screen with protease, 5 µM compound, mean of the two replicates, read-out: mean
# [5] = sheet LOPAC_screen_w_protease, LOPAC1280 primary screen with protease, 5 µM compound, replicate 1, read-out: Replicate_1
# [6] = sheet LOPAC_screen_w_protease, LOPAC1280 primary screen with protease, 5 µM compound, replicate 2, read-out: Replicate_2
# [7] = sheet LOPAC_screen_w_protease, primary screen with protease, compound at 5 µM, mean of two replicates
# [8] = sheet LOPAC_screen_w_protease, primary screen with protease, compound at 5 µM, replicate 1
# [9] = sheet LOPAC_screen_w_protease, primary screen with protease, compound at 5 µM, replicate 2
# [10] = sheet LOPAC_screen_w_protease, LOPAC1280 primary screen at 5 µM, with protease, mean of the two replicates, read-out: mean
# [11] = sheet LOPAC_screen_w_protease, LOPAC1280 primary screen at 5 µM, with protease, replicate 1, read-out: Replicate_1
# [12] = sheet LOPAC_screen_w_protease, LOPAC1280 primary screen at 5 µM, with protease, replicate 2, read-out: Replicate_2
# [13] = sheet LOPAC_screen_w_protease, LOPAC1280 at 5 µM, mean of two replicates, read-out: mean
# [14] = sheet LOPAC_screen_w_protease, LOPAC1280 at 5 µM, replicate 1, read-out: Replicate_1
# [15] = sheet LOPAC_screen_w_protease, LOPAC1280 at 5 µM, replicate 2, read-out: Replicate_2
compound,measurement,setting,value
CC(C)Cc1ccc(C(C)C(=O)O)cc1 (racemic) [(±)-Ibuprofen],mean (LOPAC_screen_w_protease),"LOPAC1280 primary screen with protease, 5 µM compound, mean of the two replicates",1.9945
same,Replicate_1 (LOPAC_screen_w_protease),"LOPAC1280 primary screen with protease, 5 µM compound, replicate 1",3.023
same,Replicate_2 (LOPAC_screen_w_protease),"LOPAC1280 primary screen with protease, 5 µM compound, replicate 2",0.9655
CC(=O)CCCCn1c(=O)c2c(ncn2C)n(C)c1=O [Pentoxifylline],inhibition at 5 µM,[1],2.98%
same,inhibition at 5 µM,[2],2.78%
same,inhibition at 5 µM,[3],3.18%
CC(C)(Sc1ccc(CCN(CCCCC2CCCCC2)C(=O)NC2CCCCC2)cc1)C(=O)O [GW7647],mean,"sheet LOPAC_screen_w_protease, primary screen with protease, 5 µM, mean of two replicates",-0.2447
same,Replicate_1,"sheet LOPAC_screen_w_protease, primary screen with protease, 5 µM, replicate 1",-0.1471
same,Replicate_2,"sheet LOPAC_screen_w_protease, primary screen with protease, 5 µM, replicate 2",-0.3423
CNC1(C)C2CCC(C2)C1(C)C (stereo not drawn) [Mecamylamine hydrochloride],inhibition at 5 µM,[4],4.7%
same,inhibition at 5 µM,[5],5.3%
same,inhibition at 5 µM,[6],4.09%
Br.CCCN1CC[C@@H]2c3cc(O)ccc3CC[C@@H]21 (racemic) [cis-(±)-8-OH-PBZI hydrobromide],mean,"sheet LOPAC_screen_w_protease, primary screen of LOPAC1280 at 5 µM with protease, mean of the two replicates",4.0009
same,Replicate_1,"sheet LOPAC_screen_w_protease, primary screen of LOPAC1280 at 5 µM with protease, replicate 1",4.218
same,Replicate_2,"sheet LOPAC_screen_w_protease, primary screen of LOPAC1280 at 5 µM with protease, replicate 2",3.784
CCN(CC)C(C)C(=O)N1c2ccccc2Sc2ccccc21.Cl (stereo not drawn),mean,[7],2.78
same,Replicate_1,[8],5.208
same,Replicate_2,[9],0.3523
CCCC(=O)NCCc1c2n(c3ccc(OC)cc13)CCCc1ccccc1-2 [K 185],mean,"sheet LOPAC_screen_w_protease, primary screen with protease, mean of two replicates",2.196
same,Replicate_1,"sheet LOPAC_screen_w_protease, primary screen with protease, replicate 1",2.886
same,Replicate_2,"sheet LOPAC_screen_w_protease, primary screen with protease, replicate 2",1.507
NS(=O)(=O)Cc1noc2ccccc12 [Zonisamide sodium],inhibition at 5 µM,[10],0.586%
same,inhibition at 5 µM,[11],-0.00469%
same,inhibition at 5 µM,[12],1.18%
C[C@]12CCC(=O)C=C1CC[C@@H]1[C@@H]2[C@@H](O)C[C@@]2(C)[C@H]1CC[C@]2(O)C(=O)CO [Hydrocortisone],inhibition at 5 µM,[13],1.15%
same,inhibition at 5 µM,[14],2.23%
same,inhibition at 5 µM,[15],0.0692%
CC[C@H](CO)Nc1nc(NCc2ccccc2)c2ncn(C(C)C)c2n1 [Roscovitine],mean (LOPAC_screen_w_protease),,1.3343
same,inhibition at 5 µM,read-out: Replicate_1 (LOPAC_screen_w_protease),3.12%
same,inhibition at 5 µM,read-out: Replicate_2 (LOPAC_screen_w_protease),-0.448%
Cc1[nH]c(=O)c(C#N)cc1-c1ccncc1 [Milrinone],inhibition at 5 µM,[4],4.26%
same,inhibition at 5 µM,[5],3.12%
same,inhibition at 5 µM,[6],5.4%
C[C@@]12N[C@@H](Cc3ccccc31)c1ccccc12.O=C(O)/C=C\C(=O)O [(-)-MK-801 hydrogen maleate],mean (LOPAC screen with protease),"sheet LOPAC_screen_w_protease, primary screen at 5 µM, mean of two replicates",6.636
same,Replicate_1 (LOPAC screen with protease),"sheet LOPAC_screen_w_protease, primary screen at 5 µM, replicate 1",5.967
same,Replicate_2 (LOPAC screen with protease),"sheet LOPAC_screen_w_protease, primary screen at 5 µM, replicate 2",7.306
"CCN(CC)CCOC(=O)c1cc(Cl)c(N)cc1OC.Cl [SDZ-205,557 hydrochloride]",mean,[7],2.714
same,Replicate_1,[8],3.796
same,Replicate_2,[9],1.633
N[C@@H](Cc1c[nH]c2ccccc12)C(=O)O [L-Tryptophan],inhibition at 5 µM,[10],0.58%
same,inhibition at 5 µM,[11],2.12%
same,inhibition at 5 µM,[12],-0.955%
"Brc1c(NC2=NCCN2)ccc2nccnc12 [UK 14,304]",Replicate_1 (LOPAC_screen_w_protease),,1.98
same,Replicate_2 (LOPAC_screen_w_protease),,2.1604
same,mean (LOPAC_screen_w_protease),,2.07
CC(C)[C@@]1(NC(=O)[C@@H]2C=C3c4cccc5[nH]cc(c45)C[C@H]3N(C)C2)O[C@@]2(O)[C@@H]3CCCN3C(=O)[C@H](Cc3ccccc3)N2C1=O [Ergocristine],inhibition at 5 µM,read-out: Replicate_1,4.04%
same,inhibition at 5 µM,read-out: Replicate_2,2.86%
same,inhibition at 5 µM,read-out: mean,3.45%
C[N+](C)(C)CC(=O)O [Betaine hydrochloride],inhibition at 5 µM,[13],1.07%
same,inhibition at 5 µM,[14],0.144%
same,inhibition at 5 µM,[15],1.99%
C[C@]12CC[C@@H](O)C[C@@H]1CC[C@@H]1[C@@H]2CC[C@]2(C)[C@@H](C(=O)CO)CC[C@@H]12,mean,"sheet LOPAC_screen_w_protease, LOPAC1280 primary screen with protease, 5 µM compound, mean of the two replicates",5.219
same,Replicate_1,"sheet LOPAC_screen_w_protease, LOPAC1280 primary screen with protease, 5 µM compound, replicate 1",2.641
same,Replicate_2,"sheet LOPAC_screen_w_protease, LOPAC1280 primary screen with protease, 5 µM compound, replicate 2",7.796
CCCCCCCCCC[Si](C)(C)CCC(=O)NC(Cc1ccc(C)cc1)c1ccccc1 (stereo not drawn) [Sandoz 58-035],mean,"sheet LOPAC_screen_w_protease, LOPAC1280 primary screen at 5 µM, with protease, mean of the two replicates",0.7639
same,Replicate_1,"sheet LOPAC_screen_w_protease, LOPAC1280 primary screen at 5 µM, with protease, replicate 1",1.25
same,Replicate_2,"sheet LOPAC_screen_w_protease, LOPAC1280 primary screen at 5 µM, with protease, replicate 2",0.2774
CCOC(=O)c1ncn2c1CN(C)C(=O)c1cc(F)ccc1-2 [Flumazenil],inhibition at 5 µM,[1],3.1%
same,inhibition at 5 µM,[2],5.09%
same,inhibition at 5 µM,[3],1.11%
